# Legend:
# [1] = system: PCA reaction; experiment: Mouse Passive Cutaneous Anaphylaxis (PCA) Test; format: in vivo; conditions: Male ICR (CD-1) mice; subcutaneously 30 minutes or orally 2 hours before antigen challenge
# Experimental: 3. Mouse Passive Cutaneous Anaphylaxis (PCA) Test […] After 24 hours of the sensitization, 200 μl of 0.5% Evans blue solution containing 50 μg of DNP-conjugated bovine serum albumin was intravenously administered, and, after 30 minutes, each mouse was sacrificed through exsanguination to isolate both ears. […] The dye in the tissues was extracted with formaride and colorimetrically determined at 620 nm. A value obtained by subtracting the dye content of the left ear from the dye content of the right ear was used as the amount of dye leaked into the tissues by the PCA reaction. The PCA inhibition ratio by the test compound was calculated based on the following equation. In the formula, C: amount of the dye leaked into the tissue at the time of the administration of the vehicle alone, and x: amount of the dye leaked into the tissue at the time of the administration of the test compound. Inhibition ratio (%)={C-X}×100/C
# [2] = system: release of serotonin; experiment: Serotonin Release Test; format: cell-based; conditions: read-out: inhibitory activity as IC50 value against the release of serotonin
# Experimental: 2. Serotonin Release Test
# This was carried out in accordance with the method reported by Collado-Escobar et al. (Collado-Escobar, D et al. J. Immunol., 144: 3449-3457 (1990)).
# [3] = biological target: T1, Syk (Homo sapiens, UniProt P43405); experiment: Syk Tyrosine Kinase Inhibition Test (SPA system); format: biochemical
# T1 construct: FLAG tag (8 amino acid residues) (C); made in house; host or cells: Sf-9 insect cells (baculovirus, pFASTBAC HT)
# Source text: 1. Syk Tyrosine Kinase Inhibition Test
# 1) Preparation of Syk Protein
# Human Syk gene, in the form where a gene of FLAG tag consisting of 8 amino acid residues was linked to the 3′-end, was cloned using RT-PCR method from total RNA prepared from Jurkat cells. The amplified cDNA was incorporated into a vector, pFASTBAC HT, contained in Baculovirus Expression System (GIBCO BRL Inc.). The pFASTBAC HT is designed in such a manner that a His tag consisting of 6 histidine residues can be fused to the 5′-end of Syk. This plasmid DNA was introduced into competent cells, DH10BAC, contained in the Baculovirus Expression System to prepare DNA of recombinant virus. Thereafter, the recombinant virus (culture supernatant) was obtained by transfection of the DNA of recombinant virus into Sf-9 cells (ATCC). […]
# SPA (Scintillation Proximity Assay) is a system developed by Amersham making use of a phenomenon in which scintillation occurs when a molecule having a radioactivity is in the proximity of (linked to) the surface of plastic beads containing a scintillant included therein. […]
# The plate was sealed, stirred, allowed to stand at room temperature for 15 minutes and then centrifuged at 1,500 rpm for 3 minutes to precipitate the SPA beads. Radioactivity of each well was measured using TOP COUNT (PACKARD), and the tyrosine phosphorylation activity by Syk was calculated.
IC50 [2],inhibitory activity against Syk at 1 μM [3],Structure (SMILES),suppression of PCA reaction [1]
–,–,Cc1cccc(Nc2nc(N[C@@H]3CCCC[C@@H]3N)ccc2C(N)=O)c1.Cl (relative stereo) [Example 1],excellently suppressed PCA reaction
–,–,"Cc1cccc(Nc2nc(N[C@@H]3CCCC[C@@H]3N)cnc2C(N)=O)c1 (relative stereo) [Example 2, 5-(cis-2-aminohexylamino)-3-(3-methylanilino)pyrazine-2-carboxamide]",excellently suppressed PCA reaction
≤ 100 nM,–,"COc1cccc(Nc2nc(N[C@@H]3CCCC[C@@H]3N)cnc2C(N)=O)c1 (relative stereo) [Example 8, 5-(cis-2-aminocyclohexylamino)-3-(3-methoxyanilino)pyrazine-2-carboxamide]",excellently suppressed PCA reaction
≤ 100 nM,–,"COc1cc(Nc2nc(N[C@@H]3CCCC[C@@H]3N)cnc2C(N)=O)cc(OC)c1 (relative stereo) [Example 10, 5-(cis-2-aminocyclohexylamino)-3-(3,5-dimethoxyanilino)pyrazine-2-carboxamide]",excellently suppressed PCA reaction
≤ 100 nM,–,"CSc1ccc(Nc2nc(N[C@@H]3CCCC[C@@H]3N)cnc2C(N)=O)cc1 (relative stereo) [Example 11, 5-(cis-2-aminocyclohexylamino)-3-(4-methylsulfanylanilino)pyrazine-2-carboxamide]",excellently suppressed PCA reaction
–,did not exhibit any inhibitory activity,"CN(C)C(=O)c1cnc(NCCN)nc1Nc1cccc(C(F)(F)F)c1 [2-(2-aminoethylamino)-N,N-dimethyl-4-(3-trifluoromethylanilino)pyrimidine-5-carboxamide]",–
–,did not exhibit any inhibitory activity,CNC(=O)c1cnc(NCCN)nc1Nc1cccc(C(F)(F)F)c1 [2-(2-aminoethylamino)-N-methyl-4-(3-trifluoromethylanilino)pyrimidine-5-carboxamide],–
